{"source": "patent US10925858B2", "about": "“S-nitrosoglutathione (GSNO) and GSNO reductase inhibitors for use in therapy” (MUSC FOUNDATION FOR RESEARCH DEVELOPMENT, priority 2017, dated 2021)", "tested_on": "tight junction proteins (ZO-1, Occludin, Claudin-5)", "assay": "Western blotting, protein expression of tight junction proteins in isolated microvessels of diabetic mice", "format": "in vivo", "procedure": "Male laca mice weighing between 28-32 g were procured from the Central Animal House, Panjab University, Chandigarh. The animals were acclimatized and were fed with standard pellet diet and water ad libitum. The experimental protocols were approved by the Institutional Ethics Committee and were conducted according to Indian National Science Academy (INSA) guidelines for the use and care of experimental animals. The animals were divided into four groups: (i) Control animals received phosphate buffered saline (PBS) throughout the study; (ii) Control+GSNO animals were administered with GSNO 100 μg/kg body weight orally, dissolved in PBS after every 24 h for 8 weeks; (iii) Diabetic animals were injected with STZ at a dose of 40 mg/kg body weight intraperitoneally for 5 days dissolved in 0.1 mol/L citrate buffer, pH 4.5 and Diabetic+GSNO mice were administered GSNO 100 μg/kg body weight orally dissolved in PBS after every 24 h for 8 weeks after the induction of diabetes. Animals were assessed weekly for development of diabetic encephalopathy in terms of memory deficits. All experimental procedures were done on mice at the end of study. The microvessels were isolated by the method described by Brooks et al., (2005). Brain tissue was homogenized in microisolation buffer (103 mM NaCl, 4.7 mM KCl, 2.5 mM CaCb, 1.2 mM KH2PO4, 1.2 mM MgSO4, 15 mM HEPES, 2.5 mM NaHCO3, 10 mM D-glucose, 1 mM sodium pyruvate and 10 g/L dextran (64,000 mol wt), pH 7.4) and equal amount of 26% (w/v) dextran was added. The sample was then centrifuged at 5600 g for 10 min and pellets obtained were resuspended in microisolation buffer. Then the suspension was filtered through 70 μm filter (BD Biosciences, Gurgaon, India). The filtered homogenates were then centrifuged at 3000 g for 10 min at 4° C. and the pellet was obtained. Protein expression of tight junction proteins and cell adhesion molecules i.e. ZO-1, occludin, Claudin-5, ICAM-1 and VCAM-1 was studied in microvessels obtained from cortex and hippocampus regions of the brain (Towbin et al., 1992). […]", "key": {"[1]": {"conditions": "microvessels of cortex and hippocampus, diabetic mice + GSNO 100 μg/kg oral 8 weeks"}}, "data": [{"compound": "N[C@@H](CCC(=O)N[C@@H](CSN=O)C(=O)NCC(=O)O)C(=O)O", "note": "[GSNO, S-nitrosoglutathione]", "values": [{"measurement": "protein expression of claudin-5", "setting": "GSNO treated diabetic animals", "result": "no significant change"}, {"measurement": "increase of protein expression of ZO-1", "setting": "[1]", "result": "~70", "unit": "%"}, {"measurement": "increase of protein expression of occludin", "setting": "[1]", "result": "~60", "unit": "%"}]}]}
